# According to the OPERA property sets (Mansouri et al. 2018):
row,logP,SMILES
1,1.54,CN(C)C(=O)c1ccccc1Cl
2,2.4,COc1ccc(C(=O)N2CCCCC2)cc1
3,2.4,CCN(CC)C(=O)Cc1ccccc1
4,1.32,CCNC(=O)c1cccc(C)c1
5,2.6,Cc1cccc(C(=O)N2CCCCC2)c1
6,2.2,O=C(c1ccccc1)N1CCCCC1
7,1.38,CCNC(=O)c1ccc(C)cc1
8,2.19,CN(C)C(=O)CC1CCCCC1
9,2.8,Cc1ccc(C(=O)N2CCCCC2)cc1
10,2.5,Cc1ccc(C(=O)N(C(C)C)C(C)C)cc1
11,1.14,CCNC(=O)c1ccc(OC)cc1
12,2.5,CCOc1ccccc1C(=O)N(CC)CC
13,3,Cc1cccc(C(=O)N(C(C)C)C(C)C)c1
14,3.2,O=C(CC1CCCCC1)N1CCCCC1
15,2.8,COc1ccc(C(=O)N(C(C)C)C(C)C)cc1
16,2.28,CCNC(=O)CC1CCCCC1

row,logP,SMILES
1,3,CCOc1ccccc1C(=O)N(C(C)C)C(C)C
2,2.1,CCN(CC)C(=O)c1ccccc1Cl
3,3.1,CC(C)N(C(=O)Cc1ccccc1)C(C)C
4,3.12,CCN(CC)C(=O)CC1CCCCC1
5,2.6,CCOc1ccccc1C(=O)N1CCCCC1
6,1.48,CN(C)C(=O)Cc1ccccc1
7,2.38,CCN(CC)C(=O)c1ccc(C)cc1
8,2.4,CCNC(=O)c1ccccc1OCC
9,3,CC(C)N(C(=O)c1ccccc1Cl)C(C)C
10,2.8,O=C(c1ccccc1Cl)N1CCCCC1
11,2.5,CC(C)N(C(=O)c1ccccc1)C(C)C
12,1,CCNC(=O)Cc1ccccc1
13,1.6,Cc1cccc(C(=O)N(C)C)c1
14,1.72,Cc1ccc(C(=O)N(C)C)cc1
15,2.44,O=C(Cc1ccccc1)N1CCCCC1
